Source: article PMC6271131, “Inhibitory Effects of Colocasia esculenta (L.) Schott Constituents on Aldose Reductase” (Molecules, 2014)
Converted amounts (≈) assume the structure as drawn. “And” between values parts separate entries of the source, which are not always exact repeats. Identical values can stand only once. Like-named read-outs stand apart in the source and are kept apart here.

What was measured:
[1] = ABTS^+ radical assay (antioxidant)
Method: The method of Re et al., [39] was used with slight modifications. ABTS diammonium salt (2 mM) and potassium persulfate (3.5 mM) were mixed, diluted in distilled water and kept in the dark at room temperature for 24 h before use. After addition of ABTS^+ solution to 10 µL of antioxidant compounds were recorded at after 10 min reaction. […] Trolox was used as positive control.

[2] = molecular target: T1, rat lens aldose reductase (rAR) (Rattus norvegicus, UniProt P07943); assay: Rat lens aldose reductase (rAR) inhibition, DL-glyceraldehyde substrate, NADPH decrease at 340 nm; type: biochemical; settings: for IC50: Table 2 experiment
T1 construct: The rat lens homogenate was prepared according to the method of Hayman and Kinoshita with some modifications; from tissue; host or cells: lenses of Sprague-Dawley rats (homogenate supernatant)
Method: The rat lens homogenate was prepared according to the method of Hayman and Kinoshita with some modifications. Non-cataractous transparent lenses were pooled and homogenate was prepared in 0.1 M phosphate buffer saline (pH 6.2). After centrifugation at 10,000 rpm for 20 min in a refrigerated centrifuge, the supernatant, which was then collected and as the rAR, all procedures were carried out at 4 °C.
Each 1.0 mL cuvette contained equal units of the enzyme, 0.10 M sodium phosphate buffer (pH 6.2), 0.3 mM NADPH, with or without 10 mM of the substrate and an inhibitor [10, 36].

[3] = molecular target: T2, recombinant human aldose reductase (rhAR) (Homo sapiens, UniProt P15121); assay: Kinetic analysis of aldose reductase inhibition (Lineweaver-Burk plots); type: biochemical; settings: for type of inhibition: Lineweaver-Burk plots, Km unchanged, Vmax decreased; for Ki: from secondary Lineweaver-Burk plots, DL-glyceraldehyde 0.1-1 mM, read-out: inhibitory constant (Ki)
T2 construct: purchased Wako Pure Chemical Industries (Osaka, Japan)
Method: Reaction mixtures consisted of 0.1 M potassium phosphate, 0.16 mM NADPH, […] of recombinant human aldose reductase (rhAR) with varied concentrations of substrate DL-glyceraldehyde and AR inhibitor in a total volume of 200 µL. Concentrations were ranged from 0.1 to 1 mM for DL-glyceraldehyde, from 0.1 to 1 mM for active compound. Recombinant human aldose reductase activity was assayed spectrophotometrically by measuring the decrease in absorption of NADPH at 340 nm after substrate addition using a Bio Tek Power Wave XS spectrophotometer (Bio Tek Instruments, Winooski, VT, USA).

[4] = test system: rat erythrocyte; assay: Galactitol accumulation in rat erythrocytes incubated with galactose; type: cell-based; settings: 30 mM galactose; for Rat Erythrocyte Galactitol Content: 5 µg/mL compound, control 86.70 ± 1.61; for decrease of galactitol accumulation in rat erythrocyte: 5 µg/mL
Method: Blood sample was collected in heparin containing polypropylene tube from 10-week-old male rats. For sugar and sugar alcohol analysis, erythrocytes from heparinized blood were separated from the plasma and buffy coat by centrifuging at 2000× g for 10 min. The cells were washed thrice with normal saline (0.9% NaCl) at 4 °C. In the final washing, the cells were centrifuged at 2000× g for 10 min to obtain a consistently packed cell preparation. The packed cells (1 mL) were then incubated in a Krebs-Ringer bicarbonate buffer (pH 7.4) containing 30 mM galactose in the presence or absence of samples at 37 °C in 5% CO2 for 3 h. The erythrocytes were washed with cold saline by centrifuging at 2000× g for 10 min, precipitated by adding 6% of cold perchloric acid (3 mL), and centrifuged again at 2000× g for 10 min. The supernatant was neutralized with 2.5 M K2CO3 at 4 °C and used for galactitol determination. HPLC analysis for sugar and sugar alcohol in blood was performed with this supernatant of red blood cell homogenate after being benzoylated.

[5] = test system: rat lenses; assay: Galactitol accumulation in cultured isolated rat lenses (ex vivo); type: cell-based; settings: for Galactitol Content µg/lens Wet Weight (g): 5 µg/mL compound, control 250.47 ± 5.01; for inhibition at 5 µg/mL: Rattus norvegicus, 144 h, read-out: inhibition of galactitol accumulation in isolated rat lenses; for effect on polyol accumulation in rat lenses: conclusion statement
Method: Lenses isolated from 10-week-old male rats were cultured for 6 days in TC-199 medium that contained 15% fetal bovine serum 100 units/mL penicillin and 0.1 mg/mL streptomycin under sterile conditions in an atmosphere of 5% CO2 and 95% air at 37 °C. Samples were dissolved in dimethyl sulfoxide. The lenses were divided into five groups and cultured in medium containing 5 mM glucose, 30 mM galactose and rosmarinic acid or caffeic acid ethylene ester. Each lens was placed in well containing 1.0 mL of medium. Galactitol was determined by HPLC after its derivatization by reaction with benzoic acid to a fluorescent compound [37].

[6] = Table 2, read-out: Inhibition (%) of rAR
[7] = read-out: IC50 (rAR), isolated constituents (converted)
[8] = 5 µg/mL, 30 mM galactose, 6 days
[9] = Table 1, read-out: Aldose Reductase Inhibition (%)

SMILES	IC50 ([1]; Table 5) [µM]	IC50 (ABTS^+) ([1]; Table 5) [µg/mL]	IC50 [2, 7]	Inhibition (%) of ABTS^+ ([1]; Table 5, 16.67 µg/mL) [%]	inhibition at 10 µg/mL ([2]; Table 2) [%]	Inhibition (%) of ABTS^+ ([1]; Table 5, 1.67 µg/mL) [%]	Inhibition (%) of ABTS^+ ([1]; Table 5, 3.33 µg/mL) [%]	Inhibition (%) of ABTS^+ ([1]; Table 5, 8.33 µg/mL) [%]	inhibition at 0.5 µg/mL [2, 6] [%]	inhibition at 1 µg/mL [2, 6] [%]	inhibition at 5 µg/mL ([2]; Table 2) [%]	further results
N[C@@H](Cc1c[nH]c2ccccc12)C(=O)O [Compound 1, tryptophan]	–	–	–	37.51 ± 2.93	20 ± 2.01	–	–	–	–	–	–	–
O=c1cc(-c2ccc(O)c(O)c2)oc2c([C@@H]3O[C@H](CO)[C@@H](O)[C@H](O)[C@H]3O)c(O)cc(O)c12 [Compound 2, orientin]	12.5 ± 0.95	5.59 ± 0.42 (≈ 12.5 µM)	1.65 µM	–	–	17.56 ± 2.21	31.76 ± 3.19	72.55 ± 4.10	35.3 ± 0.36	64.57 ± 0.52	94 ± 0.98	type of inhibition [3]: noncompetitive inhibitors; Ki [3]: 3.23 µM; Rat Erythrocyte Galactitol Content [4]: 72.72 ± 0.98 µM; decrease of galactitol accumulation in rat erythrocyte [4]: 16.1%; Galactitol Content µg/lens Wet Weight (g) ([5]; 30 mM galactose, 6 days): 227.89 ± 4.52 µg/lens Wet Weight (g); inhibition at 5 µg/mL [5]: 9.1%; effect on polyol accumulation in rat lenses [5]: prevented the accumulation of sorbitol in rat lenses
O=c1cc(-c2ccc(O)c(O)c2)oc2cc(O)c([C@@H]3O[C@H](CO)[C@@H](O)[C@H](O)[C@H]3O)c(O)c12 [Compound 3, isoorientin]	14.6 ± 1.18	6.53 ± 0.53 (≈ 14.6 µM)	–	–	–	17.87 ± 3.08	31.69 ± 4.94	60.92 ± 2.81	37.23 ± 0.37	57.6 ± 0.58	77.73 ± 0.77	type of inhibition [3]: noncompetitive inhibitors; Ki [3]: 5.88 µM; Rat Erythrocyte Galactitol Content [4]: 56.18 ± 1.00 µM; decrease of galactitol accumulation in rat erythrocyte [4]: 35.2%; IC50 ([2]; IC50 (rAR), isolated constituents): 1.92 µM; Galactitol Content µg/lens Wet Weight (g) ([5]; 30 mM galactose, 6 days): 243.14 ± 4.71 µg/lens Wet Weight (g); inhibition at 5 µg/mL [5, 8]: 2.7%; effect on polyol accumulation in rat lenses [5]: prevented the accumulation of sorbitol in rat lenses
O=c1cc(-c2ccc(O)cc2)oc2c([C@@H]3O[C@H](CO)[C@@H](O)[C@H](O)[C@H]3O)c(O)cc(O)c12 [Compound 4, vitexin]	–	–	–	46.17 ± 2.65	48.5 ± 0.87	–	–	–	–	–	–	–
O=c1cc(-c2ccc(O)cc2)oc2cc(O)c([C@@H]3O[C@H](CO)[C@@H](O)[C@H](O)[C@H]3O)c(O)c12 [Compound 5, isovitexin]	–	–	7.35 µM and 7.36 µM	44.40 ± 4.91	76.59 ± 0.74	–	–	–	–	23.3 ± 0.25	60.3 ± 0.61	–
O=c1c(O)c(-c2ccc(O)c(O)c2)oc2cc(O)cc(O)c12 [Quercetin, quercetin, reference compound]	–	–	–	–	–	–	–	–	26.3 ± 0.59	48.6 ± 1.44	81.14 ± 0.81	IC50 ([1]; Table 4): 3.2 ± 0.12 µM; IC50 (ABTS^+) ([1]; Table 4): 0.97 ± 0.04 µg/mL (≈ 3.21 µM); Inhibition (%) of ABTS^+ ([1]; Table 4, 0.33 µg/mL): 22.98 ± 3.55%; Inhibition (%) of ABTS^+ ([1]; Table 4, 0.83 µg/mL): 42.49 ± 3.39%; Inhibition (%) of ABTS^+ ([1]; Table 4, 1.67 µg/mL): 81.36 ± 1.75%; Rat Erythrocyte Galactitol Content [4]: 45.17 ± 0.81 µM; decrease of galactitol accumulation in rat erythrocyte [4]: 47.9%; inhibition at 0.5 µg/mL [2, 9]: 31.62 ± 0.09%; inhibition at 1 µg/mL [2, 9]: 48.9 ± 0.51%; inhibition at 2.5 µg/mL [2, 9]: 69.6 ± 0.72%; Galactitol Content µg/lens Wet Weight (g) ([5]; 30 mM galactose, 6 days): 241.07 ± 4.57 µg/lens Wet Weight (g); inhibition at 5 µg/mL [5, 8]: 3.8%
Cc1c(C)c2c(c(C)c1O)CCC(C)(C(=O)O)O2 (stereo not drawn) [Trolox, reference compound]	–	–	–	–	–	–	–	–	–	–	–	IC50 ([1]; Table 4): 11.49 ± 0.04 µM; IC50 (ABTS^+) ([1]; Table 4): 2.87 ± 0.01 µg/mL (≈ 11.5 µM); Inhibition (%) of ABTS^+ ([1]; Table 4, 1.67 µg/mL): 27.07 ± 1.15%; Inhibition (%) of ABTS^+ ([1]; Table 4, 3.33 µg/mL): 57.40 ± 2.03%; Inhibition (%) of ABTS^+ ([1]; Table 4, 8.33 µg/mL): 92.92 ± 0.06%

More lines, main results first:

IC50 ([1]; Table 5) [µM]	IC50 (ABTS^+) ([1]; Table 5) [µg/mL]	IC50 [2, 7]	SMILES	Inhibition (%) of ABTS^+ ([1]; Table 5, 16.67 µg/mL) [%]	inhibition at 10 µg/mL ([2]; Table 2) [%]	Inhibition (%) of ABTS^+ ([1]; Table 5, 1.67 µg/mL) [%]	Inhibition (%) of ABTS^+ ([1]; Table 5, 3.33 µg/mL) [%]	Inhibition (%) of ABTS^+ ([1]; Table 5, 8.33 µg/mL) [%]	inhibition at 0.5 µg/mL [2, 6] [%]	inhibition at 1 µg/mL [2, 6] [%]	inhibition at 5 µg/mL ([2]; Table 2) [%]	further results
17.8 ± 1.51	8.00 ± 0.68 (≈ 17.8 µM)	7.47 µM	O=c1cc(-c2ccc(O)c(O)c2)oc2cc(O[C@@H]3O[C@H](CO)[C@@H](O)[C@H](O)[C@H]3O)cc(O)c12 [Compound 6, luteolin-7-O-glucoside]	–	76.2 ± 0.77	13.49 ± 1.09	22.66 ± 2.47	52.11 ± 3.98	–	19.1 ± 0.21	61.88 ± 0.6	–
15.8 ± 0.8	9.38 ± 0.47 (≈ 15.8 µM)	2.59 µM	C[C@@H]1O[C@@H](OC[C@H]2O[C@@H](Oc3cc(O)c4c(=O)cc(-c5ccc(O)c(O)c5)oc4c3)[C@H](O)[C@@H](O)[C@@H]2O)[C@H](O)[C@H](O)[C@H]1O [Compound 7, luteolin-7-O-rutinoside]	79.82 ± 0.67	–	–	21.44 ± 1.46	49.55 ± 3.91	29.9 ± 0.3	40.31 ± 0.4	72.7 ± 0.73	–
19.2 ± 1.69	6.91 ± 0.61 (≈ 19.2 µM)	–	O=C(/C=C/c1ccc(O)c(O)c1)O[C@H](Cc1ccc(O)c(O)c1)C(=O)O [Compound 8, rosmarinic acid]	–	–	16.20 ± 3.85	23.61 ± 2.27	60.25 ± 4.66	18.3 ± 0.19	62.79 ± 0.6	87.33 ± 0.87	–
37.4 ± 0.64	13.31 ± 0.23 (≈ 37.4 µM)	–	COc1cc(C=CC(=O)OC2OC(CO)C(O)C(O)C2O)ccc1O [Compound 9, 1-O-feruloyl-D-glucoside]	59.10 ± 2.55	4.06 ± 0.4	–	13.51 ± 1.62	35.36 ± 1.54	–	–	–	–
23.5 ± 1.43	8.04 ± 0.49 (≈ 23.5 µM)	14.1 µM	O=C(C=Cc1ccc(O)c(O)c1)OC1OC(CO)C(O)C(O)C1O [Compound 10, 1-O-caffeoyl-D-glucoside]	–	73.2 ± 0.99	14.07 ± 0.39	29.84 ± 1.19	50.87 ± 1.30	–	–	55.6 ± 0.78	inhibition at 2.5 µg/mL [2, 6]: 24.7 ± 0.36%
